Laboratory results taken from patent publication US20110086759A1, “CHEMICAL COMPOUNDS” (SYNGENTA CROP PROTECTION, INC., priority 2007, published 2011).

Experiments:
[1] = tested on: Ipomea hederaceae (IPOHE); test: Pre-emergence biological efficacy, glasshouse pot test; assay type: in vivo; settings: Ipomoea hederacea, 312 h
How it was run: (§1)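 Compound was applied as a spray one day after sowing, at a final dose of 1000 or 250 g/ha. Plants grew under 14 h light, 24/16 °C and 65% humidity, and injury was assessed on day 13 on a 0–100 scale.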

[2] = tested on: Echinochloa crus-galli (ECHCG); test: as above; assay type: in vivo; settings: 312 h
How it was run: as §1

Setaria faberi (SETFA) [3] = test: as above; assay type: in vivo; settings: 312 h
How it was run: as §1

[4] = tested on: Amaranthus retoflexus (AMARE); test: as above; assay type: in vivo; settings: Amaranthus retroflexus, 312 h
How it was run: as §1

Solanum nigrum (SOLNI) [5] = test: as above; assay type: in vivo; settings: 312 h
How it was run: as §1

[6] = tested on: Alopecurus myosuroides (ALOMY); test: as above; assay type: in vivo; settings: 312 h
How it was run: as §1

[7] = tested on: Ipomea hederaceae (IPOHE); test: Post-emergence biological efficacy, glasshouse pot test; assay type: in vivo; settings: Ipomoea hederacea, 312 h
How it was run: (§2)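 Plants were sown in standard soil and grown 8 days in a glasshouse (24/16° C. day/night, 14 hours light, 65% humidity), then sprayed post-emergence at 1000 or 250 g/ha from acetone/water (50:50) with 0.5% Tween 20. Damage was scored visually after 13 days (0 = none, 100 = total).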

[8] = tested on: Echinochloa crus-galli (ECHCG); test: as above; assay type: in vivo; settings: 312 h
How it was run: as §2

Setaria faberi (SETFA) [9] = test: as above; assay type: in vivo; settings: 312 h
How it was run: as §2

[10] = tested on: Amaranthus retoflexus (AMARE); test: as above; assay type: in vivo; settings: Amaranthus retroflexus, 312 h
How it was run: as §2

Solanum nigrum (SOLNI) [11] = test: as above; assay type: in vivo; settings: 312 h
How it was run: as §2

[12] = tested on: Alopecurus myosuroides (ALOMY); test: as above; assay type: in vivo; settings: 312 h
How it was run: as §2

[13] = pre-emergence, rate 1,000 g/ha, evaluated after 13 days (100=total damage to plant; 0=no damage), read-out: Percentage damage caused to weed species, IPOHE
[14] = pre-emergence, rate 1,000 g/ha, evaluated after 13 days (100=total damage to plant; 0=no damage), read-out: Percentage damage caused to weed species, ECHCG
[15] = pre-emergence, rate 1,000 g/ha, evaluated after 13 days (100=total damage to plant; 0=no damage), read-out: Percentage damage caused to weed species, SETFA
[16] = pre-emergence, rate 1,000 g/ha, evaluated after 13 days (100=total damage to plant; 0=no damage), read-out: Percentage damage caused to weed species, AMARE
[17] = pre-emergence, rate 1,000 g/ha, evaluated after 13 days (100=total damage to plant; 0=no damage), read-out: Percentage damage caused to weed species, SOLNI
[18] = pre-emergence, rate 1,000 g/ha, evaluated after 13 days (100=total damage to plant; 0=no damage), read-out: Percentage damage caused to weed species, ALOMY
[19] = Rate 1,000 g/ha, post-emergence spray, evaluated after 13 days (100=total damage to plant; 0=no damage to plant), read-out: Percentage damage caused to weed species, post-emergence, IPOHE
[20] = Rate 1,000 g/ha, post-emergence spray, evaluated after 13 days (100=total damage to plant; 0=no damage to plant), read-out: Percentage damage caused to weed species, post-emergence, ECHCG
[21] = Rate 1,000 g/ha, post-emergence spray, evaluated after 13 days (100=total damage to plant; 0=no damage to plant), read-out: Percentage damage caused to weed species, post-emergence, SETFA
[22] = Rate 1,000 g/ha, post-emergence spray, evaluated after 13 days (100=total damage to plant; 0=no damage to plant), read-out: Percentage damage caused to weed species, post-emergence, AMARE
[23] = Rate 1,000 g/ha, post-emergence spray, evaluated after 13 days (100=total damage to plant; 0=no damage to plant), read-out: Percentage damage caused to weed species, post-emergence, SOLNI
[24] = Rate 1,000 g/ha, post-emergence spray, evaluated after 13 days (100=total damage to plant; 0=no damage to plant), read-out: Percentage damage caused to weed species, post-emergence, ALOMY

| SMILES | pest or weed control at 1000 g/ha [1, 13] | pest or weed control at 1000 g/ha [2, 14] | pest or weed control at 1000 g/ha (Setaria faberi (SETFA) [3]; [15]) | pest or weed control at 1000 g/ha [4, 16] | pest or weed control at 1000 g/ha (Solanum nigrum (SOLNI) [5]; [17]) | pest or weed control at 1000 g/ha [6, 18] | pest or weed control at 1000 g/ha [7, 19] | pest or weed control at 1000 g/ha [8, 20] | pest or weed control at 1000 g/ha (Setaria faberi (SETFA) [9]; [21]) | pest or weed control at 1000 g/ha [10, 22] | pest or weed control at 1000 g/ha (Solanum nigrum (SOLNI) [11]; [23]) | pest or weed control at 1000 g/ha [12, 24] | other results |
| --- | --- | --- | --- | --- | --- | --- | --- | --- | --- | --- | --- | --- | --- |
| O=C(O)c1nc(C2CC2)nc(NCc2ccco2)c1Cl [Compound 1-125, 5-chloro-2-cyclopropyl-4-(furan-2-ylmethylamino)-pyrimidine-6-carboxylic acid] | – | – | – | – | – | – | – | – | – | – | – | – | pest or weed control at 1000 g/ha ([1]; pre-emergence, 1,000 g/ha, evaluated after 13 days (100=total damage; 0=no damage), read-out: Percentage damage IPOHE): 100%; pest or weed control at 1000 g/ha ([2]; pre-emergence, 1,000 g/ha, evaluated after 13 days (100=total damage; 0=no damage), read-out: Percentage damage ECHCG): 80%; pest or weed control at 1000 g/ha (Setaria faberi (SETFA) [3]; pre-emergence, 1,000 g/ha, evaluated after 13 days (100=total damage; 0=no damage), read-out: Percentage damage SETFA): 70%; pest or weed control at 1000 g/ha ([4]; pre-emergence, 1,000 g/ha, evaluated after 13 days (100=total damage; 0=no damage), read-out: Percentage damage AMARE): 100%; pest or weed control at 1000 g/ha (Solanum nigrum (SOLNI) [5]; pre-emergence, 1,000 g/ha, evaluated after 13 days (100=total damage; 0=no damage), read-out: Percentage damage SOLNI): 100%; pest or weed control at 1000 g/ha ([6]; pre-emergence, 1,000 g/ha, evaluated after 13 days (100=total damage; 0=no damage), read-out: Percentage damage ALOMY): 60%; melting point: 150 to 152 °C; pest or weed control at 1000 g/ha ([7]; post-emergence, 1,000 g/ha, evaluated after 13 days (100=total damage; 0=no damage), read-out: Percentage damage caused to weed species, IPOHE): 100%; pest or weed control at 1000 g/ha ([8]; post-emergence, 1,000 g/ha, evaluated after 13 days (100=total damage; 0=no damage), read-out: Percentage damage caused to weed species, ECHCG): 70%; pest or weed control at 1000 g/ha (Setaria faberi (SETFA) [9]; post-emergence, 1,000 g/ha, evaluated after 13 days (100=total damage; 0=no damage), read-out: Percentage damage caused to weed species, SETFA): 90%; pest or weed control at 1000 g/ha ([10]; post-emergence, 1,000 g/ha, evaluated after 13 days (100=total damage; 0=no damage), read-out: Percentage damage caused to weed species, AMARE): 100%; pest or weed control at 1000 g/ha (Solanum nigrum (SOLNI) [11]; post-emergence, 1,000 g/ha, evaluated after 13 days (100=total damage; 0=no damage), read-out: Percentage damage caused to weed species, SOLNI): 100%; pest or weed control at 1000 g/ha ([12]; post-emergence, 1,000 g/ha, evaluated after 13 days (100=total damage; 0=no damage), read-out: Percentage damage caused to weed species, ALOMY): 60% |
| C=Cc1c(NCc2ccco2)nc(C2CC2)nc1C(=O)OC [Compound 31-125, 2-cyclopropyl-5-ethenyl-4-(furan-2-ylmethylamino)-6-methoxycarbonylpyrimidine] | 100% | 20% | 20% | 90% | 80% | 20% | 50% | 0% | 10% | 90% | 80% | 10% | melting point: 85 to 86 °C |
| COC(=O)c1nc(-c2ccc(Cl)s2)nc(NC2CC2)c1Cl [Compound 262-30, 5-Chloro-2-(5-chloro-thiophen-2-yl)-4-cyclopropylamino-6-methoxycarbonyl-pyrimidine] | 0% | 0% | 0% | 0% | 0% | 0% | 50% | 10% | 10% | 80% | 90% | 0% | – |
| COC(=O)c1nc(-c2ccc(Cl)s2)nc(NCc2ccco2)c1Cl [Compound 262-48, 5-Chloro-2-(5-chlorothiophen-2-yl)-4-(furan-2-yl-methylamino)-6-methoxycarbonyl-pyrimidine] | 0% | 0% | 0% | 80% | 20% | 0% | 60% | 20% | 0% | 100% | 80% | 20% | – |
| O=C(NCc1ccccc1)c1nc(C2CC2)nc(NCc2ccccc2)c1Cl [Compound 265-1, 5-chloro-2-cyclopropyl-4-phenylmethylamino-6-phenylmethylaminocarbonyl pyrimidine] | 0% | 0% | 0% | 30% | 10% | 0% | 70% | 0% | 0% | 80% | 50% | 10% | – |
| O=C(NCc1ccco1)c1nc(C2CC2)nc(NCc2ccco2)c1Cl [Compound 265-3, 5-Chloro-2-cyclopropyl-4-(furan-2-ylmethylamino)-6-(furan-2-yl-methylamino-carbonyl)-pyrimidine] | 90% | 30% | 40% | 60% | 60% | 20% | 70% | 30% | 20% | 70% | 70% | 20% | – |
| O=C(NCc1cccs1)c1nc(C2CC2)nc(NCc2cccs2)c1Cl [Compound 265-4, 5-Chloro-2-cyclopropyl-4-(thiophen-2-ylmethylamino)-6-(thiophen-2-yl-methylamino-carbonyl)-pyrimidine] | 0% | 0% | 0% | 20% | 0% | 0% | 50% | 20% | 20% | 50% | 50% | 20% | – |
| Cc1c(NCC2CC2)nc(C2CC2)nc1OCC(=O)NCC1CC1 [Compound 266-20, 2-cyclopropyl-4-cyclopropylmethylamino-6-cyclopropylmethylaminocarbonylmethoxy-5-methylpyrimidine] | 40% | 0% | 0% | 100% | 50% | 0% | 70% | 0% | 0% | 90% | 80% | 0% | – |
